Assays:
Experiment in all cases: relative viability (nuclei count vs DMSO), 5 days (fraction); higher = more cells survive
[1] = compound: C[C@@H](N)c1ccc(C(=O)Nc2ccnc3[nH]ccc23)cc1 + Nc1ncn([C@H]2C[C@H](O)[C@@H](CO)O2)c(=O)n1 [Decitabine] (partner 2 µM)
Outline: (§1)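 Each reported value is a median over duplicate plates. It expresses relative viability: treated-well nuclei count divided by vehicle-well nuclei count. Lung cancer cell lines in 1536-well plates were dosed by pin tool a day after seeding, alone with one drug or with a fixed anchor-drug dose plus five library-drug doses (not always all listed) in √10 steps, and nuclei were counted after 5 days.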

[2] = compound: C1CNCCC1C2=CC(=NN2)C3=CC=NC=C3 + Cc1nc(NC(=O)N2CCC[C@H]2C(N)=O)sc1-c1ccnc(C(C)(C)C(F)(F)F)c1 [Alpelisib] (partner 2 µM)
Outline: as §1

Tanzisertib + Phenformin = compound: O[C@H]1CC[C@H](Nc2ncc3nc(Nc4c(F)cc(F)cc4F)n([C@H]4CCOC4)c3n2)CC1 [Tanzisertib] + N=C(N)NC(=N)NCCc1ccccc1 [Phenformin] (partner 250 µM)
Outline: as §1

Tanzisertib + Pictilisib = compound: O[C@H]1CC[C@H](Nc2ncc3nc(Nc4c(F)cc(F)cc4F)n([C@H]4CCOC4)c3n2)CC1 [Tanzisertib] + CS(=O)(=O)N1CCN(Cc2cc3nc(-c4cccc5[nH]ncc45)nc(N4CCOCC4)c3s2)CC1 [Pictilisib] (partner 1 µM)
Outline: as §1

| Cell Line | relative viability ([1]; first compound 0.1265 µM) | relative viability ([1]; first compound 0.4 µM) | relative viability ([1]; first compound 1.265 µM) | relative viability ([1]; first compound 4 µM) | relative viability ([2]; first compound 0.08 µM) | relative viability ([2]; first compound 0.8 µM) | relative viability ([2]; first compound 2.53 µM) | relative viability ([2]; first compound 8 µM) | relative viability (Tanzisertib + Phenformin; first compound 0.08 µM) | relative viability (Tanzisertib + Phenformin; first compound 0.253 µM) | relative viability (Tanzisertib + Phenformin; first compound 0.8 µM) | relative viability (Tanzisertib + Phenformin; first compound 2.53 µM) | relative viability (Tanzisertib + Phenformin; first compound 8 µM) | relative viability (Tanzisertib + Pictilisib; first compound 0.08 µM) | relative viability (Tanzisertib + Pictilisib; first compound 0.253 µM) | relative viability (Tanzisertib + Pictilisib; first compound 0.8 µM) | relative viability (Tanzisertib + Pictilisib; first compound 2.53 µM) | relative viability (Tanzisertib + Pictilisib; first compound 8 µM) | relative viability ([1]; first compound 0.04 µM) |
| --- | --- | --- | --- | --- | --- | --- | --- | --- | --- | --- | --- | --- | --- | --- | --- | --- | --- | --- | --- |
| LU99A | 1.03 | 0.824 | 0.773 | 0.598 | 0.545 | 0.579 | 0.65 | 0.566 | 0.971 | 0.82 | 0.884 | 0.813 | 0.786 | 0.322 | 0.303 | 0.319 | 0.358 | 0.321 |  |
| NCI-H1437 | 0.572 | 0.541 | 0.602 | 0.591 | 0.941 | 0.979 | 0.999 | 0.928 | 0.287 | 0.314 | 0.303 | 0.276 | 0.283 | 0.445 | 0.492 | 0.452 | 0.486 | 0.565 | 0.526 |
| EKVX | 0.331 | 0.358 | 0.329 | 0.385 | 0.738 | 0.573 | 1.03 | 0.818 | 0.227 | 0.244 | 0.253 | 0.227 | 0.205 | 0.425 | 0.392 | 0.405 | 0.42 | 0.329 | 0.385 |
| ABC-1 | 0.895 | 1.13 | 1.46 | 1.46 | 0.997 | 0.857 | 1.19 | 1.13 | 0.242 | 0.251 | 0.226 | 0.211 | 0.218 | 0.906 | 0.837 | 0.686 | 0.764 | 0.785 | 1.2 |
| NCI-H520 | 0.552 | 0.61 | 0.617 | 0.569 | 0.88 | 0.666 | 0.831 | 0.658 | 0.734 | 0.662 | 0.599 | 0.609 | 0.663 | 0.372 | 0.322 | 0.29 | 0.287 | 0.297 | 0.579 |
| LCLC-97TM1 | 0.263 | 0.249 | 0.218 | 0.304 | 0.224 | 0.205 | 0.241 | 0.225 | 0.471 | 0.425 | 0.38 | 0.476 | 0.524 |  | 0.16 | 0.176 | 0.159 | 0.164 | 0.254 |
| NCI-H2170 | 0.467 | 0.489 | 0.517 | 0.429 | 0.734 | 0.761 | 0.81 | 0.684 | 0.406 | 0.451 | 0.457 | 0.411 | 0.392 | 0.357 | 0.307 | 0.313 | 0.307 | 0.27 | 0.497 |
| NCI-H1793 | 0.556 | 0.547 |  | 0.463 | 0.659 | 0.569 | 0.783 | 0.739 | 0.448 | 0.339 | 0.41 | 0.379 | 0.367 | 0.378 | 0.234 | 0.377 | 0.251 | 0.317 | 0.506 |
| NCI-H3122 | 0.454 | 0.419 | 0.458 | 0.458 | 0.87 | 0.81 | 0.799 | 0.753 | 0.398 | 0.423 | 0.378 | 0.426 | 0.314 | 0.655 | 0.591 | 0.587 | 0.572 | 0.743 | 0.46 |
| PC-14 | 0.217 | 0.277 | 0.258 | 0.188 | 0.938 | 0.913 | 1.1 | 0.923 | 0.471 | 0.746 | 0.671 | 0.599 | 0.115 | 0.778 | 0.594 | 0.799 | 0.693 | 0.203 | 0.24 |
| EPLC-272H | 0.41 | 0.481 |  | 0.492 | 0.99 | 0.774 | 0.953 | 0.983 | 0.329 | 0.311 | 0.295 | 0.327 | 0.302 | 0.396 | 0.328 | 0.397 | 0.337 | 0.199 | 0.461 |
| A-427 | 0.564 | 0.549 | 0.517 | 0.545 | 1.05 | 1.04 | 1.07 | 1.06 | 0.394 | 0.411 | 0.413 | 0.326 | 0.22 | 0.822 | 0.728 | 0.704 | 0.683 | 0.606 | 0.499 |
